# Measured values from patent publication US20250041291A1, “COMPOSITIONS AND METHODS FOR TREATING CANCER” (Emmaus Life Sciences, Inc, priority 2021, published 2025).
# What was measured:
# Assay type in all cases: cell-based
# [1] = system: MOLM-13 cells (adult acute myeloid leukemia) expressing the FLT3-ITD mutation; experiment: cell number (proliferation) of MOLM-13 cells expressing FLT3-ITD
# Method: (§1) In this example, MOLM-13 cells (adult acute myeloid leukemia) expressing the FLT3-ITD mutation were used to test Compound A to decrease their cell proliferation and increase their apoptosis level. Midostaurin (mido), an inhibitor of FLT3, was used as a positive control.
# (§2) MOLM-13 cells were cultured in RPMI1640, red phenol free, in presence of 2, 10 and 25% of fetal bovine serum (FBS). 25% FBS simulates the level of serum present in the blood. Adipose stromal cells (ASC) and human fibroblast primary cells were used as reference controls. Compound A, at various concentrations (0.05 to 100 μM), was added to the cells and incubated for 24 h, with or without the co-treatment with olaparib (a PARP inhibitor, Ola). Olaparib or ibrutinib (a BTK inhibitor) alone was also tested with these cells.
# [2] = system: MWCL-1 cells (adult Waldenström macroglobulinemia cells) expressing the Myd88 L265P mutation; experiment: caspase 3/7 activity (apoptosis) in MWCL-1 cells expressing Myd88 L265P
# Method: (§3) In this study, MWCL-1 cells (adult Waldenström macroglobulinemia cells) expressing the Myd88 L265P mutation were used to test different drugs for their effects on cell proliferation and apoptosis. Midostaurin (an inhibitor of FLT3, mido) was used as reference control.
# (§4) MWCL-1 cells were cultured in RPMI1640, in presence of 2, 10 and 25% of fetal bovine serum (FBS). The number of MWCL-1 cells decreased only at higher Compound A concentration (50 and 100 μM), during a 24 h treatment, at 2, 10 and 25% FBS (FIGS. 6A, 7A and 8A). Also, the levels of caspase 3/7 activity in the cells were elevated only at the higher concentrations (50 and 100 μM, FIGS. 6B, 7B and 8B), which is consistent with the decreased cell growth.
# [3] = system: human adipose stromal cells (ASC); experiment: caspase 3/7 activity (apoptosis) in human adipose stromal cells; settings: 25% FBS, 24 h; for activity of caspase 3 or 7 / induction of apoptosis in ASC: all tested concentrations (up to 100 μM)
# Method: as §2
# [4] = system: human adipose stromal cells (ASC); experiment: cell number (proliferation) of human adipose stromal cells after 24 h treatment; settings: 25% FBS; for ASC growth / ASC number as compared to vehicle control: at 100 μM
# Method: as §2
# [5] = system: MOLM-13 cells (adult acute myeloid leukemia) expressing the FLT3-ITD mutation; experiment: caspase 3/7 activity (apoptosis) in MOLM-13 cells expressing FLT3-ITD
# Method: as §1, §2
# [6] = system: human fibroblast primary cells; experiment: cell growth (proliferation) of human fibroblast primary cells; settings: at 100 μM, but not at lower concentrations; 25% FBS; 24 h
# Method: as §2
# [7] = system: human fibroblast primary cells; experiment: caspase 3/7 activity (apoptosis) in human fibroblast primary cells; settings: 25% FBS, 24 h
# Method: as §2
# [8] = system: MWCL-1 cells (adult Waldenström macroglobulinemia cells) expressing the Myd88 L265P mutation; experiment: cell number (proliferation) of MWCL-1 cells expressing Myd88 L265P
# Method: as §3, §4
# [9] = alone, at 10 μM, 2, 10 or 25% FBS
# [10] = 1 to 100 μM, dose-dependent, 2% or 10% FBS, 24 h
Compound,"numbers of MOLM-13 cells [1, 9]","caspase 3/7 activity in MWCL-1 cells ([2]; at 50, 100 μM, 25% FBS)",activity of caspase 3 or 7 / induction of apoptosis in ASC [3],ASC growth / ASC number as compared to vehicle control [4],"apoptotic levels of MOLM-13 cells [5, 9]","numbers of MOLM-13 cells [1, 10]","response of MOLM-13 cells to anti-cancer effects (proliferation and apoptosis) ([1]; 25% FBS, 24 h)","efficiency compared with the other compound (cell numbers and caspase 3/7 activity, MOLM-13) ([1]; at higher doses)","levels of caspase 3/7 activity in MWCL-1 cells ([2]; only at 50 and 100 μM, 24 h, 2, 10 and 25% FBS)",cell number increase of human ASC as compared to vehicle control ([4]; at 50 and 100 μM but not at lower concentrations),cell growth of human fibroblast primary cells [6],apoptosis of the fibroblasts ([7]; tested concentrations),"level of caspase 3/7 activity in MOLM-13 cells [5, 10]","efficiency compared with midostaurin (MWCL-1 cell number and caspase 3/7 activity) ([8]; both at 100 μM, 25% FBS)","number of MWCL-1 cells ([8]; only at 50 and 100 μM, 24 h treatment, 2, 10 and 25% FBS)","apoptosis (caspase 3/7 activities) of ASC ([3]; at 100 μM, but not at lower concentrations)",caspase 3/7 activities in the fibroblasts ([7]; at 100 μM)
"4-[(3-[(4-cyclopropylcarbonyl)piperazin-1-yl]carbonyl)-4-fluorophenyl]methyl(2H)phthalazin-1-one [olaparib, reference compound]",did not decrease,increased the caspase 3/7 activity,did not induce apoptosis,inhibited ASC growth,increased the apoptotic levels,,,,,,,,,,,,
"CN1CCN(C(=O)CCCc2cn(-c3ccccc3)c(NC(=O)c3cccc(-c4cnn(C)c4)c3)n2)CC1 [Compound A, 3-(1-methyl-1H-pyrazol-4-yl)-N-(4-(4-(4-methylpiperazin-1-yl)-4-oxobutyl)-1-phenyl-1H-imidazol-2-yl)benzamide]",,,did not change the activity of caspase 3 or 7,,,decreased,responded to the anti-cancer effects,more efficient at higher doses than midostaurin,elevated,slower cell number increase,slower cell growth,No apoptosis,elevated,more efficient than midostaurin,decreased,,
"C=CC(=O)N1CCC[C@@H](n2nc(-c3ccc(Oc4ccccc4)cc3)c3c(N)ncnc32)C1 [ibrutinib, 1-[(3R)-3-[4-Amino-3-(4-phenoxyphenyl)-1H-pyrazolo[3,4-d]pyrimidin-1-yl]piperidin-1-yl]prop-2-en-1-one]",,,,decrease of ASC number,,,,,,,,,,,,induced apoptosis,increased the caspase 3/7 activities
